In US10828269B2, “Reducing muscle atrophy by administering astaxanthin” (FUJI CHEMICAL INDUSTRIES CO., LTD., priority 2004, dated 2020):

Tests used:
[1] = test system: C1q related factor; experiment: GeneChip gene expression in renal glomerulus; format: in vivo, mouse; conditions: probe 1422777_at, 0.02% in diet, 12 weeks
Description: (§1) Type II diabetic female db/db mice and non-diabetic db/m were purchased from Clea Japan, Inc. Mice were bred under the conditions with a 12 hours light-dark cycle at a temperature of 21° C. to 25° C. For acclimation, mice were fed CE-2 (Clea Japan, Inc.) with free access to water for one week. The mice were divided into three groups each consisting of 8 mice (non-diabetic db/m, diabetic db/db, and astaxanthin-administered db/db) and each group was bred with feed ad libitum. Mice in astaxanthin-administered group were fed a diet in which 0.02% astaxanthin in terms of free astaxanthin was compounded with CE-2. Each group was bred for 12 weeks, and body weight, blood glucose levels, 8-OHdG levels in urine, albumin levels in urine, and kidney histopathology, were measured. Astaxanthin used here was AstaReal (registered trademark, Fuji Chemical Industry Co., Ltd.) 50F, which is oil composed of astaxanthin fatty acid ester and triglycerides and contains 5% astaxanthin in terms of free astaxanthin.
(§2) After the period of test breeding, kidney was removed and frozen at −80° C. Using an LM200 system (Olympus Corporation), the renal glomerulus was cut from kidney of mice while keeping low temperature. tRNA of renal glomerulus was extracted using tRNA extraction regent “Isogen” (produced by Nippon Gene Co., Ltd.), and then preparation of cRNA and hybridization were performed according to the Affymetrix GeneChip Eukaryotic Small Sample Target Labeling Assay Ver. II.
(§3) (1) Synthesis of first strand cDNA: 1 μL of total RNA solution and 1 of 5 μM T7-Oligo(dT) primer were mixed, heated at 70° C. for 6 minutes, and then cooled at 4° C. for 2 minutes. 3 μL of RT_Premix_1 (1.5 μL DEPC-treated water, 4 μL 5× First strand Buffer, 2 μL DTT (0.1 M), 1.5 μL dNTP Mix (10 mM), 1 μL RNase inhibitor (40 U/μL), and 2 μL Super-Script II (200 U/μL)) was added and reverse transcribed at 42° C. for 1 hour. The sample was heated at 70° C. for 10 minutes to inactivate Super Script II, and then cooled to 4° C. (2) Synthesis of second strand cDNA: 32.5 μl of SS_Premix_1 (91 μL DEPC-treated water, 30 μL 5× Second Strand Buffer, 3 μL dNTP (10 mM), 1 μL E. coli DNA ligase (10 U/μL); 4 μL E. coli DNA polymerase (10 U/μL), and 1 μL RNase H (2 U/μL)) was added to the first strand cDNA solution and allowed to react for 2 hours at 16° C. (3) To the resulting cDNA, was added 1 μL T4 DNA polymerase (5 U/μl) and allowed to react for 10 minutes at 16° C., and purified by ethanol precipitation. (4) In vitro transcription: To the dried double-stranded cDNA pellet, was added 10 μL of reagents (4 μL DEPC-treated water, 4 μL premixed NTPs, 1 μL 10× reaction buffer, and 1 μL 10× enzyme mix), and allowed to react at 37° C. in a water bath for 6 hours. (5) First cycle cRNA was purified using the RNeasy Mini Kit in accordance with the protocol in the handbook (QIAGEN). (6) Subsequently, for the amplification and labeling, the cRNA sample was mixed with random primers (0.2 μg/μL), treated at 70° C. for 10 minutes, cooled on ice for 2 minutes, 5 μL of RT_Premix_2 (5× First Strand Buffer, DTT (0.1 M), dNTP mix (10 mM), RNase inhibitor (40 U/μL), and SuperScript II (200 U/μL) was added, and allowed to react at 42° C. for 1 hour. (7) Next, Second Sstrand cDNA synthesis was carried out by adding 5 μM T7-Oligo(dT) promoter treating at 70° C. for 6 minutes, cooling at 4° C., and adding 62 μL of SS_Premix_2 (43 μL it DEPC-treated water, 15 μL 5× Second Strand Buffer, 1.5 μL dNTP mix (10 mM), and 2 μL E. coli DNA polymerase (10 U/μL)). (8) To the resulting cDNA, was treated added 1 μL of T4 DNA polymerase (5 U/μL), allowed to react at 16° C. for 10 minutes, and purified by ethanol precipitation. […]

[2] = test system: caspase 7; experiment: GeneChip gene expression in renal glomerulus; format: in vivo, mouse; conditions: probe 1434099_at, 0.02% in diet, 12 weeks
Description: as §1, §2, §3

[3] = test system: insulin like growth factor 2 receptor; experiment: GeneChip gene expression in renal glomerulus; format: in vivo, mouse; conditions: probe 1424111_at, 0.02% in diet, 12 weeks
Description: as §1, §2, §3

[4] = test system: matrix metalloproteinase 8; experiment: GeneChip gene expression in renal glomerulus; format: in vivo, mouse; conditions: probe 1449366_at, 0.02% in diet, 12 weeks
Description: as §1, §2, §3

[5] = test system: procollagen, type IV, alpha 5; experiment: GeneChip gene expression in renal glomerulus; format: in vivo, mouse; conditions: probe 1425476_at, 0.02% in diet, 12 weeks
Description: as §1, §2, §3

[6] = test system: RT1 class II, locus Ba; experiment: GENEchip mRNA expression in gastrocnemius; format: in vivo, rat; conditions: probe 1377334_at
[7] = relative to β-carotene; cited from earlier work
[8] = test system: diabetic db/db mice; conditions: Naito Y. et al, Redox Rep 2002; cited from earlier work

In the case of `CC1=C(/C=C/C(C)=C/C=C/C(C)=C/C=C/C=C(C)/C=C/C=C(C)/C=C/C2=C(C)C(=O)C(O)CC2(C)C)C(C)(C)CC(O)C1=O` (stereo not drawn) [astaxanthin, 3,3′-dihydroxy-β,β-carotene-4,4′-dione], the “gene expression intensity ratio db/db(Ax):db/db” value [1] is reported as 1.32, the “gene expression intensity ratio db/db(Ax):db/m” value [1] is reported as 0.71 and the “gene expression relative ratio db/db(Ax):db/db” value [2] is reported as 0.87. For the same molecule, the “gene expression relative ratio db/db(Ax):db/m” value [2] was 68.59, the “gene expression intensity ratio db/db(Ax):db/db” value [3] was 0.87 and the “gene expression intensity ratio db/db(Ax):db/m” value [3] was 11.31. The “gene expression intensity ratio db/db(Ax):db/db” value [4] was 2.00, the “gene expression intensity ratio db/db(Ax):db/m” value [4] was 0.62 and the “gene expression intensity ratio db/db(Ax):db/db” value [5] was 0.50. The “gene expression intensity ratio db/db(Ax):db/m” value [5] was 2.00, the “gene expression intensity ratio ad/nd” value ([6]; denervated left leg gastrocnemius, astaxanthin group vs control group) was 0.51 and the luminescence intensity ad ([6]; denervated left leg gastrocnemius, astaxanthin-administered group) was 312. The “gene expression intensity ratio ac/nc” value ([6]; right leg (control) gastrocnemius, astaxanthin group vs control group) was 1.60, the luminescence intensity ac ([6]; right leg (control) gastrocnemius, astaxanthin-administered group) was 220.5 and the “antioxidant effect, times as strong as β-carotene” value [7] was “about 40 times”. For the same molecule, the blood glucose level [8] was “reduces blood glucose level” and the diabetic nephropathy [8] was “has an effect on the improvement of diabetic nephropathy”.
